Converted amounts (≈) assume the structure as drawn. The source made the active and inactive calls. The calls are words filed in the database; no cut-off is given here.
Tests used:
[1] = system: Enterococcus faecalis; test: Antibacterial activity against vancomycin-resistant Enterococcus faecalis 342B after 24 hrs; assay type: functional
[2] = system: Enterococcus faecalis; test: Antibacterial activity against vancomycin-resistant Enterococcus faecalis 725B after 24 hrs; assay type: functional
[3] = system: Enterococcus faecalis; test: Antibacterial activity against vancomycin-resistant Enterococcus faecalis 368 after 24 hrs; assay type: functional; conditions: Enterococcus faecalis, 368, 24 h
[4] = Selectivity index, ratio of LD50 for human THP1 cells to MIC for vancomycin-resistant Enterococcus faecalis 342B; assay type: toxicity; conditions: THP-1 cells, read-out: Selectivity Index
[5] = Cytotoxicity against human THP1 cells after 24 hrs by LDH release assay; assay type: cell-based; conditions: THP-1 cells, read-out: LD50
[6] = system: Enterococcus faecalis; test: Antibacterial activity against vancomycin-resistant Enterococcus faecalis 342B assessed as compound concentration causing additive effect after 18 hrs in presence of vancomycin by checkerboard assay; assay type: functional
[7] = system: Enterococcus faecalis; test: Antibacterial activity against vancomycin-resistant Enterococcus faecalis 725B in presence of tetracycline after 18 hrs by checkerboard assay; assay type: functional
[8] = system: Enterococcus faecalis; test: Antibacterial activity against vancomycin-resistant Enterococcus faecalis 368 assessed as compound concentration causing additive effect after 18 hrs in presence of vancomycin after 18 hrs by checkerboard assay; assay type: functional
[9] = system: Enterococcus faecalis; test: Antibacterial activity against vancomycin-resistant Enterococcus faecalis 342B in presence of vancomycin after 18 hrs by checkerboard assay; assay type: functional
[10] = system: Enterococcus faecalis; test: Antibacterial activity against vancomycin-resistant Enterococcus faecalis 368 in presence of vancomycin after 18 hrs by checkerboard assay; assay type: functional
[11] = system: Enterococcus faecalis; test: Antibacterial activity against vancomycin-resistant Enterococcus faecalis 368 in presence of tetracycline after 18 hrs by checkerboard assay; assay type: functional
[12] = system: Enterococcus faecalis; test: Antibacterial activity against vancomycin-resistant Enterococcus faecalis 368 assessed as vancomycin concentration causing additive effect after 18 hrs after 18 hrs by checkerboard assay; assay type: functional
[13] = system: Enterococcus faecalis; test: Antibacterial activity against vancomycin-resistant Enterococcus faecalis 342B assessed as vancomycin concentration causing additive effect after 18 hrs by checkerboard assay; assay type: functional
[14] = system: Enterococcus faecalis; test: Antibacterial activity against vancomycin-resistant Enterococcus faecalis 725B in presence of ciprofloxacin after 18 hrs by checkerboard assay; assay type: functional
[15] = system: Enterococcus faecalis; test: Antibacterial activity against vancomycin-susceptible Enterococcus faecalis ATCC 29212 after 24 hrs; assay type: functional; conditions: ATCC 29212, 24 h
[16] = system: Enterococcus faecalis; test: Antibacterial activity against vancomycin-resistant Enterococcus faecalis 342B in presence of tetracycline after 18 hrs by checkerboard assay; assay type: functional
[17] = system: Enterococcus faecalis; test: Antibacterial activity against vancomycin-resistant Enterococcus faecalis 725B in presence of vancomycin after 18 hrs by checkerboard assay; assay type: functional
[18] = system: Enterococcus faecalis; test: Antibacterial activity against vancomycin-resistant Enterococcus faecalis 725B assessed as compound concentration causing additive effect after 18 hrs in presence of ciprofloxacin by checkerboard assay; assay type: functional
[19] = system: Enterococcus faecalis; test: Antibacterial activity against vancomycin-resistant Enterococcus faecalis 725B assessed as ciprofloxacin concentration causing additive effect after 18 hrs by checkerboard assay; assay type: functional
[20] = system: Enterococcus faecalis; test: Antibacterial activity against vancomycin-resistant Enterococcus faecalis 342B assessed as compound concentration causing additive effect after 18 hrs in presence of tetracycline by checkerboard assay; assay type: functional
[21] = system: Enterococcus faecalis; test: Antibacterial activity against vancomycin-resistant Enterococcus faecalis 342B assessed as tetracycline concentration causing additive effect after 18 hrs by checkerboard assay; assay type: functional
[22] = system: Enterococcus faecalis; test: Antibacterial activity against vancomycin-resistant Enterococcus faecalis 368 assessed as compound concentration causing additive effect after 18 hrs in presence of tetracycline after 18 hrs by checkerboard assay; assay type: functional
[23] = system: Enterococcus faecalis; test: Bacteriostatic activity against vancomycin-resistant Enterococcus faecalis 725B up to 24 hrs by time kill assay; assay type: functional, organism-based
[24] = system: Enterococcus faecalis; test: Antibacterial activity against vancomycin-resistant Enterococcus faecalis 368 assessed as tetracycline concentration causing additive effect after 18 hrs after 18 hrs by checkerboard assay; assay type: functional
[25] = system: Enterococcus faecalis; test: Bacteriostatic activity against vancomycin-resistant Enterococcus faecalis 342B up to 24 hrs by time kill assay; assay type: functional, organism-based
[26] = system: Enterococcus faecalis; test: Antibacterial activity against vancomycin-resistant Enterococcus faecalis 368 assessed as compound concentration causing synergistic effect after 18 hrs in presence of vancomycin by checkerboard assay; assay type: functional
[27] = system: Enterococcus faecalis; test: Antibacterial activity against vancomycin-resistant Enterococcus faecalis 368 assessed as vancomycin concentration causing synergistic effect after 18 hrs by checkerboard assay; assay type: functional

CN(C)[C@@H]1C(O)=C(C(N)=O)C(=O)[C@@]2(O)C(O)=C3C(=O)c4c(O)cccc4[C@@](C)(O)[C@H]3C[C@@H]12 [TETRACYCLINE]
MIC [1]: 144 µM (≈ 64 µg/mL) | MIC [2]: 144 µM (≈ 64 µg/mL) | MIC [3]: 144 µM (≈ 64 µg/mL)

O=C(Nc1ccc(Cl)c(Cl)c1)c1ccc(Cl)cc1O
selectivity ratio [4]: 128 | CC50 at 24 h [5]: 25.6 µM | Activity [6]: 0.032 µg/mL | MBC [1]: 25.3 µM (≈ 8 µg/mL) | MIC [1]: 0.199 µM (≈ 0.063 µg/mL) | FIC [7]: 1.016 - 1.504 | MBC [2]: 25.3 µM (≈ 8 µg/mL) | MIC [2]: 0.199 µM (≈ 0.063 µg/mL) | Activity [8]: 0.25 µg/mL | FIC [9]: 0.629 - 1.128 | FIC [10]: 1 - 1.25 | FIC [11]: 1.016 - 1.504 | Activity [12]: 256 µg/mL | Activity [13]: 256 µg/mL | FIC [14]: 0.756 - 1.25 | MBC [15]: 1.58 µM (≈ 0.5 µg/mL) | MIC [15]: 0.395 µM (≈ 0.125 µg/mL) | FIC [16]: 1.016 - 1.508 | FIC [17]: 1.031 - 2.234 | MBC [3]: 202 µM (≈ 63.9 µg/mL) | MIC [3]: 0.79 µM (≈ 0.25 µg/mL) | Activity [18]: 0.032 µg/mL | Activity [19]: 32 µg/mL

O=C(Nc1ccc(Cl)cc1)c1cc([N+](=O)[O-])ccc1O
CC50 at 24 h [5]: > 40 µM | MBC [1]: > 874 µM | MIC [1]: > 874 µM | MBC [2]: > 874 µM | MIC [2]: > 874 µM | MBC [15]: > 874 µM | MIC [15]: > 874 µM | MBC [3]: > 874 µM | MIC [3]: > 874 µM

CC(C)[C@H](NC(=O)c1cc(Cl)ccc1O)C(=O)Nc1ccc(C(F)(F)F)cc1
MBC [1]: > 617 µM | MIC [1]: > 617 µM | MBC [2]: > 617 µM | MIC [2]: > 617 µM | MBC [15]: 19.3 µM (≈ 8 µg/mL) | MIC [15]: 19.3 µM (≈ 8 µg/mL) | MBC [3]: > 617 µM | MIC [3]: > 617 µM

CC(C)[C@H](NC(=O)c1ccc(Cl)cc1O)C(=O)Nc1ccc(Br)cc1
MBC [1]: > 601 µM | MIC [1]: > 601 µM | MBC [2]: > 601 µM | MIC [2]: > 601 µM | MBC [15]: > 601 µM | MIC [15]: > 601 µM | MBC [3]: > 601 µM | MIC [3]: > 601 µM

O=C(Nc1ccc([N+](=O)[O-])cc1)c1cc(Cl)ccc1O
Activity [20]: 0.5 µg/mL | Activity [21]: 16 µg/mL | Activity [6]: 0.063 µg/mL | MBC [1]: 6.83 µM (≈ 2 µg/mL) | MIC [1]: 1.71 µM (≈ 0.5 µg/mL) | FIC [7]: 1.032 - 2.125 | MBC [2]: 6.83 µM (≈ 2 µg/mL) | MIC [2]: 3.42 µM (≈ 1 µg/mL) | Activity [8]: 0.063 µg/mL | FIC [9]: 1 - 2.25 | FIC [10]: 0.625 - 1.25 | FIC [11]: 0.75 - 1.25 | Activity [12]: 512 µg/mL | Activity [22]: 1 µg/mL | Activity [13]: 64 µg/mL | FIC [14]: 1 - 1.25 | MBC [15]: 6.83 µM (≈ 2 µg/mL) | MIC [15]: 0.85 µM (≈ 0.249 µg/mL) | Activity [23]: Active | FIC [16]: 0.75 - 1.25 | Activity [24]: 16 µg/mL | FIC [17]: 1.063 - 1.5 | Activity [25]: Active | MBC [3]: > 874 µM | MIC [3]: 13.7 µM (≈ 4 µg/mL) | Activity [18]: 0.008 µg/mL | Activity [19]: 64 µg/mL

CC(C)[C@H](NC(=O)OCc1ccccc1)C(=O)Oc1ccc(Cl)cc1C(=O)Nc1ccc([N+](=O)[O-])cc1
MBC [1]: > 486 µM | MIC [1]: > 486 µM | MBC [2]: > 486 µM | MIC [2]: > 486 µM | MBC [15]: > 486 µM | MIC [15]: > 486 µM | MBC [3]: > 486 µM | MIC [3]: > 486 µM

O=C(Nc1ccc(C(F)(F)F)cc1)c1cc(Cl)ccc1O
Activity [6]: 0.5 µg/mL | MBC [1]: 25.3 µM (≈ 8 µg/mL) | MIC [1]: 0.396 µM (≈ 0.125 µg/mL) | FIC [7]: 1.032 - 1.5 | MBC [2]: 25.3 µM (≈ 8 µg/mL) | MIC [2]: 0.792 µM (≈ 0.25 µg/mL) | Activity [8]: 0.25 µg/mL | FIC [9]: 0.75 - 1.25 | FIC [10]: 0.375 - 1.064 | FIC [11]: 0.625 - 1.25 | Activity [12]: 32 µg/mL | Activity [22]: 0.25 µg/mL | Activity [13]: 256 µg/mL | Activity [26]: 0.125 µg/mL | FIC [14]: 0.532 - 1.125 | MBC [15]: 6.34 µM (≈ 2 µg/mL) | MIC [15]: 0.199 µM (≈ 0.0628 µg/mL) | FIC [16]: 1.008 - 1.5 | Activity [24]: 8 µg/mL | FIC [17]: 1 - 1.25 | MBC [3]: > 810 µM | MIC [3]: 3.16 µM (≈ 0.998 µg/mL) | Activity [18]: 0.125 µg/mL | Activity [27]: 128 µg/mL | Activity [19]: 32 µg/mL

Reference: ChEMBL document CHEMBL4118187, “In vitro activity of salicylamide derivatives against vancomycin-resistant enterococci” (Bioorg Med Chem Lett, 2018)
